This note sets out measurements from patent publication US8771734B2, “Sustained-release hydrogel preparation” (Medgel Corporation, priority 2003, dated 2014).

The data set can be described thus: In vitro release experiment (Pt by atomic absorption). Type of data set: physicochemical. The conditions noted are these: when no interaction with gelatin was created. As for the experimental part:
The thus resulting gelatin sheet of 2×2 cm following impregnation of the aqueous CDDP solution (water content: 97%) was placed in 10 ml of a phosphate buffer (PBS, pH 7.4) containing 0.1% Tween80, and shaken in a 37° C. incubator at 60 rpm/min. At a predetermined time, 5 ml of the supernatant was taken out. The same amount of 0.1% Tween80/PBS was immediately added to the sheet and put back in the incubator. Pt concentration in the samples was quantitatively determined three times using an atomic absorption photometer (Hitachi Model Z-8000, Hitachi, Ltd., Tokyo).

With `[NH2][Pt]([NH2])([Cl])[Cl]` [CDDP, cisplatin], the “time until CDDP is entirely released” value is reported as “approximately 3 hrs”.
